{"source": "ChEMBL document CHEMBL1132679", "about": "“Highly increased cellular accumulation of vincristine, a useful hydrophobic antitumor-drug, in multidrug-resistant solid cancer cells induced by a simply reduced taxinine” (1999)"}
{"assay": "Relative activity on the cellular accumulation of vincristine in multidrug-resistant (MDR) human ovarian cancer 2780AD cells", "format": "functional, A2780 ADR"}
{"smiles": "CC(=O)O[C@H]1[C@@H]2[C@H](C)[C@@H](O)CC[C@@]2(C)[C@@H](OC(C)=O)[C@H](OC(C)=O)C2=C(C)C(=O)C[C@@H]1C2(C)C", "Relative activity": 48}
{"smiles": "COc1ccc(CCN(C)CCCC(C#N)(c2ccc(OC)c(OC)c2)C(C)C)cc1OC", "note": "(stereo not given) [VERAPAMIL]", "Relative activity": 100}
{"smiles": "C=C1[C@@H](OC(=O)CCC2CCCCC2)CC[C@@]2(C)[C@@H](OC(C)=O)[C@H](OC(C)=O)C3=C(C)C(=O)C[C@@H]([C@@H](OC(C)=O)[C@H]12)C3(C)C", "Relative activity": 97}
{"smiles": "C=C1[C@@H](O)CC[C@@]2(C)[C@@H](OC(C)=O)[C@H](OC(C)=O)C3=C(C)C(=O)C[C@@H]([C@@H](OC(C)=O)[C@H]12)C3(C)C", "note": "[TAXININE A]", "Relative activity": 64}
{"smiles": "C=C1[C@@H](OCOCc2ccccc2)CC[C@@]2(C)[C@@H](OC(C)=O)[C@H](OC(C)=O)C3=C(C)C(=O)C[C@@H]([C@@H](OC(C)=O)[C@H]12)C3(C)C", "Relative activity": 158}
{"smiles": "CC(=O)O[C@H]1[C@@H]2[C@H](C)[C@@H](OC(=O)/C=C/c3ccccc3)CC[C@@]2(C)[C@@H](OC(C)=O)[C@H](OC(C)=O)C2=C(C)C(=O)C[C@@H]1C2(C)C", "Relative activity": 44}
{"smiles": "C=C1[C@@H](OC(=O)/C=C/c2ccccc2)CC[C@@]2(C)[C@@H](OC(C)=O)[C@H](OC(C)=O)C3=C(C)C(=O)C[C@@H]([C@@H](OC(C)=O)[C@H]12)C3(C)C", "Relative activity": 77}
{"smiles": "C=C1[C@@H](OC(=O)CCc2ccccc2)CC[C@@]2(C)[C@@H](OC(C)=O)[C@H](OC(C)=O)C3=C(C)C(=O)C[C@@H]([C@@H](OC(C)=O)[C@H]12)C3(C)C", "Relative activity": 227}
{"smiles": "C=C1[C@@H](OC(C)=O)CC[C@@]2(C)[C@@H](OC(C)=O)[C@H](OC(C)=O)C3=C(C)C(=O)C[C@@H]([C@@H](OC(C)=O)[C@H]12)C3(C)C", "Relative activity": 93}
{"smiles": "CC(=O)O[C@H]1[C@@H]2[C@H](C)[C@@H](OC(=O)CCc3ccccc3)CC[C@@]2(C)[C@@H](OC(C)=O)[C@H](OC(C)=O)C2=C(C)C(=O)C[C@@H]1C2(C)C", "Relative activity": 44}
